Tests used:
[1] = refractive index (Na D-line) (dimensionless); xn = mol fraction of the nth substance listed; conditions: 101.3 kPa, Liquid, Standard Abbe refractometry
[2] = xn = mol fraction of the nth substance listed; conditions: 101.3 kPa, Liquid; for speed of sound: Frequency=3 MHz, Sing-around technique in a fixed-path interferometer; for mass density: Vibrating tube method

COCCO [2-methoxyethan-1-ol] + CCn1cc[n+](C)c1.F[B-](F)(F)F
Conditions | mass density, [2] [kg/m3] | refractive index, [1] | speed of sound, [2] [m/s]
298.15 K, x2 = 0 | 960.9 | 1.4003 | 1345.8
298.15 K, x2 = 0.0515 | 993.6 | 1.4031 | 1379.1
298.15 K, x2 = 0.102 | 1022 | 1.4052 | 1408.5
298.15 K, x2 = 0.1502 | 1046.9 | 1.4067 | 1433.7
298.15 K, x2 = 0.21 | 1075 | 1.408 | 1461.4
298.15 K, x2 = 0.3051 | 1113.8 | 1.4094 | 1498.3
298.15 K, x2 = 0.3976 | 1145.5 | 1.4101 | 1526.8
298.15 K, x2 = 0.5036 | 1175.9 | 1.4107 | 1552.1
298.15 K, x2 = 0.6063 | 1200.7 | 1.4111 | 1570.9
298.15 K, x2 = 0.701 | 1220.6 | 1.4115 | 1584.8
298.15 K, x2 = 0.8024 | 1240.1 | 1.4118 | 1597.7
298.15 K, x2 = 0.8521 | 1249.4 | 1.4117 | 1603.7
298.15 K, x2 = 0.9 | 1258.3 | 1.4115 | 1609.6
298.15 K, x2 = 0.9502 | 1267.8 | 1.4111 | 1616
308.15 K, x2 = 0 | 951.7 | 1.3961 | 1311.3
308.15 K, x2 = 0.0515 | 984.6 | 1.3991 | 1345.9
308.15 K, x2 = 0.102 | 1013.2 | 1.4014 | 1376.4
308.15 K, x2 = 0.1502 | 1038.3 | 1.4031 | 1402.7
308.15 K, x2 = 0.21 | 1066.5 | 1.4046 | 1431.6
308.15 K, x2 = 0.3051 | 1105.5 | 1.4061 | 1470
308.15 K, x2 = 0.3976 | 1137.4 | 1.407 | 1499.7
308.15 K, x2 = 0.5036 | 1168 | 1.4077 | 1526.1
308.15 K, x2 = 0.6063 | 1192.9 | 1.4082 | 1545.8
308.15 K, x2 = 0.701 | 1212.9 | 1.4087 | 1560.3
308.15 K, x2 = 0.8024 | 1232.4 | 1.4091 | 1573.6
308.15 K, x2 = 0.8521 | 1241.7 | 1.4091 | 1579.8
308.15 K, x2 = 0.9 | 1250.6 | 1.4089 | 1585.9
308.15 K, x2 = 0.9502 | 1260.2 | 1.4085 | 1592.5
318.15 K, x2 = 0 | 942.7 | 1.3917 | 1276.4
318.15 K, x2 = 0.0515 | 975.9 | 1.3951 | 1312.3
318.15 K, x2 = 0.102 | 1004.7 | 1.3977 | 1344.1
318.15 K, x2 = 0.1502 | 1030 | 1.3996 | 1371.4
318.15 K, x2 = 0.21 | 1058.5 | 1.4013 | 1401.5
318.15 K, x2 = 0.3051 | 1097.9 | 1.403 | 1441.5
318.15 K, x2 = 0.3976 | 1130.1 | 1.4039 | 1472.5
318.15 K, x2 = 0.5036 | 1160.8 | 1.4047 | 1500.1
318.15 K, x2 = 0.6063 | 1185.8 | 1.4053 | 1520.6
318.15 K, x2 = 0.701 | 1205.8 | 1.406 | 1535.7
318.15 K, x2 = 0.8024 | 1225.2 | 1.4064 | 1549.6
318.15 K, x2 = 0.8521 | 1234.4 | 1.4065 | 1556.1
318.15 K, x2 = 0.9 | 1243.2 | 1.4064 | 1562.4
318.15 K, x2 = 0.9502 | 1252.5 | 1.4059 | 1569.2
328.15 K, x2 = 0 | 933.4 | 1.3876 | 1241.9
328.15 K, x2 = 0.0515 | 966.8 | 1.3914 | 1279.2
328.15 K, x2 = 0.102 | 995.8 | 1.3943 | 1312.1
328.15 K, x2 = 0.1502 | 1021.3 | 1.3965 | 1340.5
328.15 K, x2 = 0.21 | 1050 | 1.3983 | 1371.7
328.15 K, x2 = 0.3051 | 1089.6 | 1.4002 | 1413.4
328.15 K, x2 = 0.3976 | 1122 | 1.4011 | 1445.7
328.15 K, x2 = 0.5036 | 1152.9 | 1.4018 | 1474.5
328.15 K, x2 = 0.6063 | 1178 | 1.4024 | 1495.9
328.15 K, x2 = 0.701 | 1198.1 | 1.403 | 1511.7
328.15 K, x2 = 0.8024 | 1217.6 | 1.4035 | 1526.2
328.15 K, x2 = 0.8521 | 1226.8 | 1.4036 | 1532.9
328.15 K, x2 = 0.9 | 1235.6 | 1.4035 | 1539.4
328.15 K, x2 = 0.9502 | 1245 | 1.4031 | 1546.4

Source: the NIST ThermoML archive (doi:10.1016/j.tca.2016.02.005)
